This test addresses Coagulation factor XI (Homo sapiens, UniProt P03951). Briefly: In Vitro Inhibitory Effect of the Compounds of the Present Invention on the Enzymatic Activity of Blood-Coagulation Factor XIa: The following method was used to test the in vitro inhibitory effect of the compounds of the present invention on the activity of human blood-coagulation factor XIa, expressed by the Inhibition constant Ki.Solution preparation: reaction buffer: 0.03M HEPES acid, 0.145M NaCl, 0.005 M KCl, 0.1% PEG-8000, pH=7.5;HEPES 8.499 g, NaCl 8.47 g, KCl 0.3725, PEG 8000 1 g, plus ddH2O 800 ml; the pH was adjusted to 7.4 with HCl, and the volume was metered to 1 L.S2366 substrate stock solution (2 mM): a volume of substrate ([…]) was dissolved in 23 ml sterile deionized water, aliquoted, and stored at 4° C. in darkness.S2366 substrate working solution: the stock solution was diluted by 4 folds with the reaction buffer before use.FXIa working solution: 1 μl FXIa stock solution was added to 10 ml reaction buffer and thoroughly mixed before use.Method: 15 μl test sample working solution (15 μl DMSO for the control group) and 75 μl FXIa working solution were added to a 96-well plate, and incubated at room temperature for 15 min. Then 60 μl S2366 substrate working solution was added to initiate the reaction. […].

Chain of Coagulation factor XI (P03951 19-387 limits assumed): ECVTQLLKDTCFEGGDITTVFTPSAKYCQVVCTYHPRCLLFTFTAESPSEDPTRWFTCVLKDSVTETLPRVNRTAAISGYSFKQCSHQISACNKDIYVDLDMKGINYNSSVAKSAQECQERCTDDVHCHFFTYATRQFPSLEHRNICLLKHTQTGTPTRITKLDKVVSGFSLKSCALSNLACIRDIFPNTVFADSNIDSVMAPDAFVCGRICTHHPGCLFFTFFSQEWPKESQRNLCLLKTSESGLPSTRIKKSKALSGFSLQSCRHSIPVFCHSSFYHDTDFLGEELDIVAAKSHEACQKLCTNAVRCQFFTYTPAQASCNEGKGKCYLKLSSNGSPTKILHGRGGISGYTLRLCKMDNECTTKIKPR
Chain of Coagulation factor XI (P03951 388-625 limits assumed): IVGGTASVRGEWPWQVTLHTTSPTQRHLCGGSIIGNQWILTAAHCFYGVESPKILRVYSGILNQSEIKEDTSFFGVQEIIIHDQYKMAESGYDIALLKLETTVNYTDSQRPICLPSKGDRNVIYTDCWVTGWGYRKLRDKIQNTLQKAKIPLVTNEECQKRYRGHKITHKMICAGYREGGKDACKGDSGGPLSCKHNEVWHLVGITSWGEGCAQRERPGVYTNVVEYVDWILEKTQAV

As for `COC(=O)Nc1ccc(NC(=O)C2CCc3cc(-c4cc(Cl)ccc4-n4cnnn4)cc(=O)n32)cc1` (stereo unspecified), the Ki (commonly the equilibrium dissociation constant of an inhibitor or competing ligand from its target) stood at 344 nM.

The record behind these values is ChEMBL document CHEMBL5726156, “Pyridone or pyrimidone derivative, preparation method therefor and application thereof” (2019).
